The target in the test is T1, OmpC (Escherichia coli, UniProt P06996).
T1 construct: OmpC porin in planar lipid bilayer
Nature of the test: single-channel ion current blockage in planar lipid bilayer. It is filed as binding. The conditions noted are these: data not shown in paper; same pattern as Omp36.

Data on two molecules can be found in publication PMC2677626, “How β-Lactam Antibiotics Enter Bacteria: A Dialogue with the Porins” (PLoS ONE, 2009).

Molecules are shown by their SMILES.

T1 sequence (P06996 22-367): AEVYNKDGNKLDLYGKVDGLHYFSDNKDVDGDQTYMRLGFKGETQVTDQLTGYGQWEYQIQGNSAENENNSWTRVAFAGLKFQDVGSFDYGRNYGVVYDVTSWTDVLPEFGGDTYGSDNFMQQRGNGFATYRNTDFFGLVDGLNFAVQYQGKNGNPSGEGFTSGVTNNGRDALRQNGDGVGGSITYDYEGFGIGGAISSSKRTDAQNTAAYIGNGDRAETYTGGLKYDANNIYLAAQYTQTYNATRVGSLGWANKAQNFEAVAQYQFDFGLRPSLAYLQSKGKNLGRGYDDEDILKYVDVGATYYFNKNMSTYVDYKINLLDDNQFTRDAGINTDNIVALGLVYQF

On to `CO/N=C(\C(=O)N[C@@H]1C(=O)N2C(C(=O)[O-])=C(C[N+]3(C)CCCC3)CS[C@H]12)c1csc(N)n1` [cefepime], for which the “single-channel ion current blockage in planar lipid bilayer” value is “showed the same pattern of interaction with ertapenem, cefepime, ceftazidime and ampicillin (data not shown)”.

On to `C[C@@H](O)[C@H]1C(=O)N2C(C(=O)O)=C(S[C@@H]3CN[C@H](C(=O)Nc4cccc(C(=O)O)c4)C3)[C@H](C)[C@H]12` [ertapenem], for which the “single-channel ion current blockage in planar lipid bilayer” value is “showed the same pattern of interaction with ertapenem, cefepime, ceftazidime and ampicillin (data not shown)”.
